“And” between values parts separate entries of the source, which are not always exact repeats. Equal entries are not always repeated.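 Protocol summary: plate cells (96-well), add compound at 5 concentrations, incubate 48 h, interpolate endpoints linearly. The concentration for 50% growth inhibition is given as GI50. TGI: total growth inhibition.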
Columns and labels:
Test in all cases: inhibition of tumour cell growth, NCI panel, 48 h
[1] = system: DLD-1 colon
[2] = system: HOP-18 NSCLC
[3] = system: LXFL 529 NSCLC
[4] = system: DMS 114 small cell lung
[5] = system: MDA-MB-231 breast
[6] = system: NCI/ADR-RES ovarian
[7] = system: DU-145 prostate
[8] = system: MCF7 breast
[9] = system: BT-549 breast
[10] = system: MDA-MB-435

With `O=C1C=C(Nc2ccc(S(=O)(=O)Nc3ncccn3)cc2)c2ccccc2C1=O` the TGI [1] was 43.5 µM, the TGI [2] was 82.6 µM and the TGI [3] was 56.6 µM.
For `O=c1[nH]c(=O)n(C2CC(O)C(CO)O2)cc1COCC(F)(F)F` (stereo not given), the TGI [1] was over 100 µM, the TGI [3] was over 100 µM and the TGI [4] was over 100 µM.
`CCC(=O)C(C(=O)CC)c1c(OC(=O)c2ccccc2)ccc(O)c1C(=O)OC` was tested, and the TGI [3] was over 100 µM.
With `C=C(CO)CC(/C=C(\C)CC/C=C(\C)CCl)OC(C)=O` (stereo not given) the TGI [1] was over 100 µM, the TGI [3] was over 100 µM and the TGI [4] was over 100 µM.
Work on `O/N=C\C(=Nc1ccc(Cc2ccc(N=C(/C=N\O)NO)cc2)cc1)NO` yielded a TGI [1] of over 100 µM, a TGI [2] of over 100 µM and a TGI [3] of over 100 µM. The TGI [4] was over 100 µM.
`C=Cc1c(C)c2cc3[nH]c(cc4nc(cc5nc(cc1[nH]2)C(C)=C5CCC(=O)N(CC)CC)C(CCC(=O)N(CC)CC)=C4C)c(C)c3C=C` gave a TGI [1] of over 100 µM and a TGI [3] of over 100 µM.
Compound `COc1cccc2nc3c(C(=O)NCCN(C)C)cccc3nc12` has a TGI [1] of over 83.6 µM, a TGI [2] of over 79.4 µM and a TGI [3] of 42.4 µM. It also gave a TGI [4] of 21 µM.
Work on `COc1cc2c(c(OC)c1OC)-c1ccc(SC)c(=O)cc1C(CC(=O)Oc1cccc(F)c1)C2` (stereo not given) yielded a TGI [1] of over 100 µM, a TGI [2] of over 100 µM and a TGI [3] of over 40.8 µM. It also gave a TGI [4] of 1.07 µM.
For `C/C(O)=C(\N=O)C(=O)NCc1ccccc1`, the TGI [1] was over 100 µM, the TGI [2] was over 100 µM and the TGI [3] was over 100 µM. For the same compound, the TGI [4] was over 100 µM.
`CCOC(=O)C1=C(C(=O)OCC)C2(c3ccccc3)N(O1)c1ccccc1C2(C)C` (stereo not given) gave a TGI [1] of over 100 µM, a TGI [2] of 83.3 µM and a TGI [3] of over 100 µM.
In the case of `COc1cc2c3c(c1OC)C(=O)C=C3N(S(=O)(=O)c1ccc(C)cc1)CC2`, the TGI [1] is reported as over 100 µM, the TGI [2] is reported as over 100 µM and the TGI [3] is reported as over 100 µM. For the same compound, the TGI [4] was over 100 µM.
For `Cc1ccc(C2C(Cl)C(=O)N2NC(=O)c2ccc(N)cc2)cc1` (stereo not given), the TGI [1] was 40.2 µM, the TGI [3] was 29.3 µM and the TGI [4] was 23.3 µM.
`CCC[CH2][Sn]([CH2]CCC)([O]C(=O)c1cccc(F)c1F)[O]C(=O)c1cccc(F)c1F` was tested, and the GI50 [1] was 0.653 µM, the TGI [1] was 1.94 µM and the GI50 [2] was 2.17 µM. For the same compound, the TGI [2] was 3.61 µM, the GI50 [3] was 0.189 µM and the TGI [3] was 0.526 µM. It also gave a GI50 [4] of 0.291 µM.
For `CCn1c(CSc2nc(-c3ccccc3)c(-c3ccccc3)[nH]2)n[nH]c1=S`, the TGI [1] was over 100 µM, the TGI [3] was over 100 µM and the TGI [4] was over 100 µM.
Compound `O=C(/C(=N/Nc1ccccc1)c1ccc([N+](=O)[O-])cc1)c1ccc([N+](=O)[O-])cc1` has a TGI [1] of over 100 µM, a TGI [2] of over 100 µM and a TGI [3] of over 100 µM. It also gave a TGI [4] of over 100 µM.
In the case of `Cc1cc2c(cc1CO)N1Cc3cc(C)c(CO)cc3N(C2)C1`, the TGI [1] is reported as over 100 µM, the TGI [2] is reported as over 100 µM and the TGI [3] is reported as over 100 µM. The TGI [4] was over 100 µM.
For `Nc1ccccc1C(=O)NC(=O)Nc1ccc(Oc2ncc(Br)cn2)c(Cl)c1`, the TGI [5] was 2.76 µM, the TGI [6] was 0.391 µM and the TGI [7] was 1.52 µM. For the same compound, the TGI [8] was 30.9 µM, the TGI [9] was over 62.9 µM and the TGI [1] was 23.3 µM. It also gave a TGI [2] of 36 µM, a TGI [3] of 11.9 µM and a TGI [4] of under 0.162 µM. For the same compound, the TGI [10] was 0.155 µM.
Work on `COc1cc(C2c3cc4c(cc3[C@@H](N(C)c3ccc(N(C)C)cc3)C3COC(=O)C23)OCO4)cc(OC)c1O` (stereo not given in full) yielded a TGI [1] of 37.5 µM, a TGI [2] of 26.2 µM and a TGI [3] of 12.3 µM. The TGI [4] was 2.24 µM.
With `N#C/C(=C\c1ccccc1)C(NO)Nc1ccccc1` (stereo not given) the TGI [1] was over 100 µM, the TGI [2] was over 100 µM and the TGI [3] was over 100 µM.
In the case of `c1cc[c]([Sn]([O]c2cccc3cccnc23)([O]c2cccc3cccnc23)[c]2ccccc2)cc1`, the GI50 [1] is reported as 0.203 µM, the TGI [1] is reported as 0.454 µM and the GI50 [2] is reported as 0.25 µM. For the same compound, the TGI [2] was 0.527 µM, the GI50 [3] was 0.137 µM and the TGI [3] was 0.279 µM. For the same compound, the GI50 [4] was 0.186 µM and the TGI [4] was 0.427 µM.
In the case of `O=C(N/C(=C/c1cccc([N+](=O)[O-])c1)c1nc2ccc(Cl)cc2[nH]1)c1ccccc1`, the TGI [2] is reported as over 100 µM, the TGI [3] is reported as over 100 µM and the TGI [4] is reported as 62.1 µM.
Compound `O=C(NC(=O)c1cn(CCN2CCN(C(=O)NCCCCCCNC(=O)N3CCN(CCn4cc(C(=O)NC(=O)OCc5ccccc5)c(=O)[nH]c4=O)CC3)CC2)c(=O)[nH]c1=O)OCc1ccccc1` has a TGI [1] of over 100 µM, a TGI [2] of over 100 µM and a TGI [4] of over 100 µM.
For `CC(C)=C1CCC(CN2CCOCC2)C1=O` (stereo not given), the TGI [5] was 31.5 µM, the TGI [6] was 40.8 µM and the TGI [7] was 30.4 µM. For the same compound, the TGI [8] was 22.5 µM, the TGI [9] was 31.8 µM and the TGI [1] was 10.8 µM. The TGI [2] was 23.8 µM, the TGI [3] was 6.25 µM and the TGI [4] was 25 µM. It also gave a TGI [10] of 29.4 µM.
`CCOc1ccc(N=Cc2ccnc3ccccc23)cc1` gave a TGI [5] of over 75.9 µM, a TGI [6] of over 100 µM and a TGI [7] of over 100 µM. It also gave a TGI [8] of over 100 µM, a TGI [9] of over 81.1 µM and a TGI [1] of over 100 µM. For the same compound, the TGI [2] was over 100 µM, the TGI [3] was 47.4 µM and the TGI [4] was over 61.8 µM. The TGI [10] was over 100 µM.
`C1CC2=C(C1)C1=S(S2)SC2=C1CCC2` gave a TGI [1] of over 100 µM, a TGI [2] of over 100 µM and a TGI [3] of over 100 µM. The TGI [4] was over 100 µM.
Work on `CN(C)CCCCCNc1c2ccccc2nc2cccc([N+](=O)[O-])c12` yielded a TGI [5] of 0.00202 µM, a TGI [6] of 0.0055 µM and a TGI [7] of 0.00346 µM. For the same compound, the GI50 [8] was 0.000212 µM, the TGI [8] was 0.000689 µM and the TGI [9] was 0.00262 µM. The TGI [1] was 0.031 µM, the TGI [2] was over 0.1 µM and the TGI [3] was 0.085 µM. It also gave a TGI [4] of 0.0118 µM and a TGI [10] of 0.000488 µM.
Compound `O=c1c2cccnc2ncn1CCCN1CCCC1` has a TGI [1] of over 100 µM and a TGI [4] of over 100 µM.
In the case of `CC1(C)C(=O)C(=Cc2ccco2)C1=O`, the TGI [1] is reported as over 100 µM, the TGI [2] is reported as over 100 µM and the TGI [3] is reported as over 100 µM. It also gave a TGI [4] of over 100 µM.
`Clc1ccc(OCc2nnc3n2N=C(c2ccccc2)CS3)c(Cl)c1` gave a TGI [1] of over 100 µM, a TGI [3] of over 100 µM and a TGI [4] of over 100 µM.
With `COC(=O)/C(=C/c1ccc(OC)cc1)C(C(=O)O)=C1CCCCC1` the TGI [1] was over 100 µM and the TGI [3] was over 100 µM.
Compound `COC(=O)CC(=O)NCC1=CCC(=O)CC1` has a TGI [1] of over 100 µM, a TGI [3] of over 100 µM and a TGI [4] of over 100 µM.
In the case of `CCN(CC)c1ccc(N=Nc2ccc(-c3nc4cccn(C)c-4n3)cc2)cc1`, the TGI [1] is reported as 36.1 µM, the TGI [2] is reported as 89.9 µM and the TGI [3] is reported as 15.8 µM. The TGI [4] was 13 µM.
With `COC(=O)CC(C(C(C)=O)C(=O)OCc1ccccc1)N1C(=O)OC(c2ccccc2)C1c1ccccc1` (stereo not given) the TGI [1] was over 100 µM, the GI50 [2] was over 100 µM and the TGI [2] was 51.1 µM and > 100 µM. The TGI [3] was over 100 µM and the TGI [4] was over 100 µM.
Work on `CCC(C)(O)c1cn(-c2ccc(S(=O)(=O)O)cc2)nn1` (stereo not given) yielded a TGI [1] of over 100 µM, a TGI [2] of over 100 µM and a TGI [3] of over 100 µM. The TGI [4] was over 100 µM.
`COC(=O)CCC(=O)N1CC1C` (stereo not given) showed a TGI [1] of over 100 µM, a TGI [2] of over 100 µM and a TGI [3] of over 100 µM. It also gave a TGI [4] of over 100 µM.
With `Cc1noc(C)c1-c1cnc2c(-c3ccc(C(=O)O)cc3)cn([C@@H](C)c3ccccn3)c2c1` the GI50 [5] was 0.518 µM, the TGI [5] was over 100 µM and the GI50 [6] was 2.28 µM. It also gave a TGI [6] of over 100 µM, a GI50 [7] of 22.6 µM and a TGI [7] of over 100 µM. The GI50 [8] was 0.186 µM, the TGI [8] was over 100 µM and the GI50 [9] was 11.8 µM. For the same compound, the TGI [9] was over 100 µM, the GI50 [10] was 0.603 µM and the TGI [10] was over 100 µM.
`CC(=O)OC1C(O[C@H]2CC[C@]34O[C@]35CC[C@]3(C)C(C6(C)CC[C@@H](C(C)(C)O)O6)[C@@H](O)CC3(C)[C@@H]5CC(OC3OC(CO)C(O)C(O)C3O)C4C2(C)C)OCC(O)C1O` (stereo not given in full) showed a TGI [1] of over 100 µM, a TGI [2] of over 100 µM and a TGI [3] of over 100 µM. The TGI [4] was over 100 µM.
`C/C(CC(=O)Nc1ccc(NC(=O)C/C(C)=N\NC(N)=O)cc1)=N/NC(N)=O` was tested, and the TGI [1] was over 66.6 µM, the TGI [2] was over 100 µM and the TGI [3] was over 100 µM. The TGI [4] was over 53.3 µM.
`CCc1nn2ncccc2c1-c1ccnc(NC2CC2)n1` was tested, and the GI50 [5] was over 25 µM, the TGI [5] was over 25 µM and the GI50 [6] was over 25 µM. For the same compound, the TGI [6] was over 25 µM, the GI50 [7] was over 25 µM and the TGI [7] was over 25 µM. For the same compound, the GI50 [8] was over 25 µM, the TGI [8] was over 25 µM and the GI50 [9] was over 25 µM. For the same compound, the TGI [9] was over 25 µM, the GI50 [10] was over 25 µM and the TGI [10] was over 25 µM.

Reference: PubChem BioAssay (NCI)
